# What was measured:
# [1] = test system: formalin-induced mouse paw edema; assay: Antiinflammatory activity assay, mouse paw edema test (formalin); type: in vivo, male ddy mice; details: 200 mg orally, 1 hour before 0.05 ml of 0.75% formalin into right hind paw
# Method: The antiinflammatory activity of the compound of the invention was assayed by the mouse paw edema test. The experiment was performed in groups of 6 male ddy mice weighting 20 g-25 g. The volume of the right hind paw of each mouse was measured with a plethysmograph and 200 mg of the compound of the invention was orally administered. After 1 hour, 0.05 ml of 0.75% formalin as a phlogistic agent was injected subcutaneously into the dorsum of the right hind paw and the foot volume was measured at timed intervals. The edema rate and the percent inhibition was calculated from the values found. [formula]
# [2] = test system: lipid peroxide (LPO) in rat brain homogenate; assay: Antioxidant activity assay by the method of Stocks (lipid peroxide in brain homogenate, TBA method); type: biochemical, male Wistar rats; details: LPO as MDA per mg protein, 37° C., 60 minutes
# Method: The antioxidant activity of the compound of the invention was assayed by the method of Stocks.
# This experiment was performed using male Wistar rats (about 10 weeks old). After perfusion for removal of blood from the brain, the brain tissue was removed and homogenized in 4 volumes of ice-cooled 0.1M phosphate-NaCl buffer (pH 7.4). The homogenate was centrifuged at 1000×g for 10 minutes and the supernatant was taken. The brain homogenate was diluted with 10 volumes of phosphate-NaCl buffer and a 500 μl portion of the dilution was incubated at 37° C. for 60 minutes. The reaction was quenched by pouring the incubate in ice-water and 490 μl of 0.1M phosphate-NaCl buffer was added. The amount of lipid peroxide (LPO) was determined by the TBA method. The amount of LPO was expressed in the amount of malondialdehyde (MDA) per mg protein. The amount of protein was determined by the method of Lowry.
Structure (SMILES),% Inhibition ([1]; Hour 1) [%],% Inhibition ([1]; Hour 4) [%],% Inhibition ([2]; Dosage 1 × 10^-3 M) [%],% Inhibition ([2]; Dosage 1 × 10^-4 M) [%]
"COC(=O)[C@@]1(C)CC[C@]2(C)CC[C@]3(C)C(=CC(=O)[C@@H]4[C@@]5(C)CC[C@H](OP(=O)(O)OC6=C(O)[C@@H]([C@@H](O)CO)OC6=O)C(C)(C)[C@@H]5CC[C@]43C)[C@@H]2C1 [(1), Methyl 3-(L-ascorbyl-2-phosphoryl)-glycyrrhetinate]",36.36,37.84,95.3,87.6
"CCCCCCCCCCCCOC(=O)[C@@]1(C)CC[C@]2(C)CC[C@]3(C)C(=CC(=O)[C@@H]4[C@@]5(C)CC[C@H](OP(=O)(O)OC6=C(O)[C@@H]([C@@H](O)CO)OC6=O)C(C)(C)[C@@H]5CC[C@]43C)[C@@H]2C1 [(4), Lauryl 3-(L-ascorbyl-2-phosphoryl)-glycyrrhetinate potassium]",49.03,50.57,–,–
"CCCCCCOC(=O)[C@@]1(C)CC[C@]2(C)CC[C@]3(C)C(=CC(=O)[C@@H]4[C@@]5(C)CC[C@H](OP(=O)(O)OC6=C(O)[C@@H]([C@@H](O)CO)OC6=O)C(C)(C)[C@@H]5CC[C@]43C)[C@@H]2C1 [(3), Hexyl 3-(L-ascorbyl-2-phosphoryl)-glycyrrhetinate potassium]",22.50,22.07,94.8,82.5
"CC1(C)[C@@H](O)CC[C@]2(C)[C@H]3C(=O)C=C4[C@@H]5C[C@@](C)(C(=O)O)CC[C@]5(C)CC[C@@]4(C)[C@]3(C)CC[C@@H]12 [(6), Glycyrrhetic acid]",16.28,25.37,–,–
"CCOC(=O)[C@@]1(C)CC[C@]2(C)CC[C@]3(C)C(=CC(=O)[C@@H]4[C@@]5(C)CC[C@H](OP(=O)(O)OC6=C(O)[C@@H]([C@@H](O)CO)OC6=O)C(C)(C)[C@@H]5CC[C@]43C)[C@@H]2C1 [(2), Ethyl 3-(L-ascorbyl-2-phosphoryl)-glycyrrhetinate]",18.84,28.72,95.4,44.7
"CCCCCCCCCCCCCCCCCCOC(=O)[C@@]1(C)CC[C@]2(C)CC[C@]3(C)C(=CC(=O)[C@@H]4[C@@]5(C)CC[C@H](OP(=O)(O)OC6=C(O)[C@@H]([C@@H](O)CO)OC6=O)C(C)(C)[C@@H]5CC[C@]43C)[C@@H]2C1 [(5), Stearyl 3-(L-ascorbyl-2-phosphoryl)-glycyrrhetinate potassium]",31.02,34.42,–,–
